# How the values were obtained:
# [1] = biological target: T1, human NDP kinase A (NDPK-A, nm23-H1), wild type (Homo sapiens, UniProt P15531); assay: Pre-steady-state phosphotransfer, fluorescence stopped-flow; format: biochemical; details: catalytic efficiency of phosphotransfer, NDPK-A, pre-steady state
# T1 construct: made in house
# Experimental: (§1) FIG. 3 depicts the catalytic efficiency of NDPK-A and mutants for nucleoside analogs. The rates of phosphorylation of pure recombinant NDP kinases (1 μM) were measured at the pre-steady state in a fluorescence stopped-flow with d4T-TP (10 to 80 μM). The catalytic efficiency (expressed in M^−1s^−1) was determined from the variation of the rate as a function of analog as shown in FIG. 2 (▾, NDPK-A, ♦ L55H, ● N115S, ▪ L55H-N115S).
# (§2) The activity assays were performed at the pre-steady state level.
# (§3) Wild type human NDPK-A and the mutants were expressed and purified according to Schneider et al., 2000, Mol Pharm. Recombinant wild type and mutant Dd-NDPK were obtained as described (Schneid, 1998a), except for N119Y NDP kinase which was partially purified by Q sepharose FF chromatography. Each protein was characterized by […] electrophoresis. The concentration of 17 kDa subunits of the enzyme was either determined by Bradford assay ([…]) or using an absorbance coefficient of ΔA^280=1.249 for a 1 mg/mL solution of human wild type and N115S NDPK-A, and =0.55 for wild type and mutant N119S, N119T Dd-NDP kinases, respectively.
# (§4) As the diphosphate form of analogs were not always available, the triphosphate analogs were used to study phosphate transfer in reaction as in Scheme I. Experiments were performed with an Hi-Tech DX2 microvolume stopped-flow reaction (Schneider, 1998) at Aexc=296 nm (for Ado derivatives) or […] (for other nucleotides), 2 mm excitation slit and a 320 nm cutoff filter at the emission. After mixing NDPK (1 μM) and NTP or an analogTP (10-500 μM), the intrinsic protein fluorescence was recorded for 10-200 sec. In each experiment, 400 pairs of data were recorded, and the data from 3-4 identical experiments were averaged and fitted to a number of non-linear analytical equations using the software provided by Hi-Tech.
# (§5) The data were analyzed using the reaction scheme: [drawing 1]
# (§6) In both the forward and the reverse reactions, the product concentration remains very low, thus the product binding can be neglected, and the observed single step could be attributed to the phosphotransfer (Schneider, 1998). The rate of this observed single step is: [formula]
# (§7) and reaches a limiting value (k+2) at NTP saturation. […] Therefore, catalytic efficiencies of phosphorylation (CEphos=k+2/(k−1/k+1)=k+2/KS) were measured, which are equivalent to second order constants and allow a reliable comparison of a variety of NDP kinase substrates.
# [2] = biological target: T2, human NDP kinase A (NDPK-A) variant L55H-N115S, SEQ ID NO: 3 (Homo sapiens, UniProt P15531, L55H/N115S); assay: as above; format: biochemical; details: for k2/Ks: catalytic efficiency of phosphotransfer, L55H-N115S, pre-steady state
# T2 construct: made in house; host or cells: E. coli
# T2 sequence (P15531 whole entry L55H/N115S): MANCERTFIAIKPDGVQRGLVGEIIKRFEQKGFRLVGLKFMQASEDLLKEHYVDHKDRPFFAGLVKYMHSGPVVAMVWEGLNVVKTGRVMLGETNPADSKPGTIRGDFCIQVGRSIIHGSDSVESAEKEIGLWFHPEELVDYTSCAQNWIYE
# Experimental: as §1, §2
# (§8) R, the specificity change, is the ratio of the catalytic efficiencies (for analog versus natural nucleotide) of the mutant compared to the wild type enzyme.
# as §3, §4, §5, §6, §7
# [3] = biological target: T3, human NDP kinase A (NDPK-A) variant L55H (Homo sapiens, UniProt P15531, L55H); assay: as above; format: biochemical; details: for k2/Ks: catalytic efficiency of phosphotransfer, L55H, pre-steady state
# T3 construct: made in house; host or cells: E. coli
# T3 sequence (P15531 whole entry L55H): as the sequence (P15531 whole entry L55H/N115S) above, with S115N counted along it
# Experimental: as §1, §2, §8, §3, §4, §5, §6, §7
# [4] = biological target: T4, human NDP kinase A (NDPK-A) variant N115S, SEQ ID NO: 2 (Homo sapiens, UniProt P15531, N115S); assay: as above; format: biochemical; details: for k2/Ks: catalytic efficiency of phosphotransfer, N115S, pre-steady state
# T4 construct: made in house; host or cells: E. coli
# T4 sequence (P15531 whole entry N115S): as the sequence (P15531 whole entry L55H/N115S) above, with H55L counted along it
# Experimental: as §1, §2, §8, §3, §4, §5, §6, §7
# [5] = biological target: T5, Dictyostelium NDP Kinase N119S (Dictyostelium discoideum, UniProt P22887, N119S); assay: Pre-steady-state fluorescence stopped-flow phosphotransfer from nucleoside triphosphates, N119S Dd-NDPK; format: biochemical; details: pre-steady state, stopped-flow; average of three determinations
# T5 construct: made in house
# T5 sequence (P22887 whole entry N119S): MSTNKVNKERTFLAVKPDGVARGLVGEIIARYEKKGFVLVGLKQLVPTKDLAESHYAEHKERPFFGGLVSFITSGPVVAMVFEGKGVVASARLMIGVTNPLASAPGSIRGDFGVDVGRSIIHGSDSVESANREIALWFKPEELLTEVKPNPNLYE
# Experimental: (§9) All numbers in italics have already been published (Schneider, 1998, 2000) The kinetic constants were measured at the pre-steady-state level using a fluorescence stopped-flow device. The binding constants were determined at equilibrium by recording the increase in fluorescence (Schneider, 2000). Values are the average of three independent determinations.
# as §4, with “Hi-Tech. All curves fitted to single exponentials.” for “Hi-Tech.”
# as §5, §6
# (§10) and reaches a limiting value (k+2) at NTP saturation. Saturation could not be obtained with the concentrations of any NTP used here. Therefore, catalytic efficiencies of phosphorylation (CEphos=k+2/(k−1/k+1)=k+2/KS) were measured, which are equivalent to second order constants and allow a reliable comparison of a variety of NDP kinase substrates.
# [6] = biological target: T6, Dictyostelium discoideum NDP kinase (Dd-NDPK), wild type (Dictyostelium discoideum, UniProt P22887); assay: Pre-steady-state phosphotransfer, fluorescence stopped-flow; format: biochemical; details: catalytic efficiency of phosphotransfer, wt
# T6 construct: made in house
# Experimental: (§11) (A) Kinetics of reaction of phosphorylated Dictyostelium wild type and N119S NDP kinases by 100 μM Acyclovir diphosphate (Acy-DP). The phosphorylated enzyme was prepared with a stoichiometry #1 as described (Deville-Bonne 1996). The kinases were preincubated with ATP in excess in buffer T (50 mM Tris-HCl, pH 7.5, 5 mM MgCl2 and 75 mM KCl). The increase in fluorescence upon mixing the phospho-enzyme (1 μM, final concentration) with Acy-DP in buffer T at 20° C. was monitored with a stopped-flow. The solid lines represent the best fit of each curve to a monoexponential.
# (§12) (B) Concentration dependence of the rate constant on Acy-DP concentation. The pseudo-first order rate constant for the reaction (kobs) was plotted against Acy-DP.
# as §9, §3
# as §4, with “Hi-Tech. All curves fitted to single exponentials.” for “Hi-Tech.”
# as §5, §6, §10
# [7] = biological target: T7, Dictyostelium discoideum NDP kinase (Dd-NDPK) variant N119S, SEQ ID NO: 1 (Dictyostelium discoideum, UniProt P22887, N119S); assay: as above; format: biochemical; details: catalytic efficiency of phosphotransfer, N119S, pre-steady state
# T7 construct: made in house
# T7 sequence (P22887 whole entry N119S): as above
# Experimental: as §11, §12, §9, §3
# as §4, with “Hi-Tech. All curves fitted to single exponentials.” for “Hi-Tech.”
# as §5, §6, §10
# [8] = biological target: T8, Dictyostelium discoideum NDP kinase inactive variant EI (H122G-F64W) (Dictyostelium discoideum, UniProt P22887, F64W/H122G); assay: biochemical; format: binding
# T8 construct: made in house
# T8 sequence (P22887 whole entry F64W/H122G): as the sequence (P22887 whole entry N119S) above, with F64W, S119N, H122G counted along it
# Experimental: (§13) The binding constants were determined at equilibrium by recording the increase in fluorescence (Schneider, 2000).
# (§14) Analog binding affinity was measured using a variant of Dd-NDPK (EI) as described (Schneider, 2000). […] The mutation N119S was inserted in EI in order to measure the nucleotide affinity by fluorescence titration.
# (§15) Altered bases as compared to the wild type sequence are underlined in bold. Sequences were checked by automatic sequencing. The mutant EI-N119S was obtained by mutation of the previously described F64W-H122G mutated NDP kinase (here called EI) (Schneider 2000).
# [9] = biological target: T9, Dictyostelium discoideum NDP kinase inactive variant EI-N119S (H122G-F64W-N119S) (Dictyostelium discoideum, UniProt P22887, F64W/H122G/N119S); assay: biochemical; format: binding
# T9 construct: made in house
# T9 sequence (P22887 whole entry F64W/N119S/H122G): as the sequence (P22887 whole entry N119S) above, with F64W, H122G counted along it
# Experimental: as §13, §14, §15
# [10] = Steady-state NDP kinase activity, coupled enzymes (pyruvate kinase, lactate dehydrogenase); format: biochemical; details: for specific activity: standard conditions: [ATP]=1 mM, [dTDP]=0.2 mM, 20° C.
# Experimental: The activity of NDP kinase was measured at 20° C. with ATP and dTDP as substrates using coupled enzymes (pyruvate kinase and lactate dehydrogenase) (Lascu 1993). One unit is the amount of enzyme that catalyzes the phosphotransfer of 1 μmol/min under standard conditions: [ATP]=1 mM, [dTDP]=0.2 mM. Rate constants (kcat) and Michaelis constants (Km) were determined from initial velocities for two different constant ratios of nucleotide [dTDP]/[ATP]=0.05 0.1 with [ATP] varying from 0.2 to 2 mM. kcat is expressed by enzyme subunit. The ratio of the ^apparentkcat/^apparentKM at a given concentration of the other substrate is equal to the true value of kcat/KM for a ping-pong enzyme.
# [11] = ratio of catalytic efficiencies analog vs natural nucleotide, mutant vs wild type
# T1 sequence (P15531 whole entry): as the sequence (P15531 whole entry L55H/N115S) above, with H55L, S115N counted along it
Molecule,k2/Ks [1] [M⁻¹ s⁻¹],k2/Ks [2] [M⁻¹ s⁻¹],k2/Ks [3] [M⁻¹ s⁻¹],k2/Ks [4] [M⁻¹ s⁻¹],specific activity [10] [U/mg],also measured
Nc1ncnc2c1ncn2[C@H]1CC[C@@H](COP(=O)(O)OP(=O)(O)OP(=O)(O)O)O1 [ddATP],,,,,,k2/Ks N119S (catalytic efficiency of phosphotransfer) [5]: 2700 M⁻¹ s⁻¹; k2/Ks [6]: 1300 M⁻¹ s⁻¹; k2/Ks [7]: 2700 M⁻¹ s⁻¹; Kd [8]: 4.6 µM; Kd [9]: 2.6 µM
L55H: human NDPK-A with Leu 55 replaced by His,,,,,1900,steady-state activity relative to NDPK-A ([10]; ATP and dTDP): 1.6 fold
"N119Y: Dd-NDPK with Tyr at the position of Asn 119, unstable and poorly active (protein, UniProt P22887 1-155, looked up, variant N119Y) Nucleoside diphosphate …: MSTNKVNKERTFLAVKPDGVARGLVGEIIARYEKKGFVLVGLKQLVPTKDLAESHYAEHKERPFFGGLVSFITSGPVVAMVFEGKGVVASARLMIGVTNPLASAPGSIRGDFGVDVGRYIIHGSDSVESANREIALWFKPEELLTEVKPNPNLYE",,,,,,"activity relative to wild type ([10]; Dd-NDPK mutant, partially purified): 0.05 % of wild type activity"
"Dd-NDPK: wild type NDP kinase from Dictyostelium discoideum (protein, UniProt P22887 1-155, looked up) Nucleoside diphosphate …: MSTNKVNKERTFLAVKPDGVARGLVGEIIARYEKKGFVLVGLKQLVPTKDLAESHYAEHKERPFFGGLVSFITSGPVVAMVFEGKGVVASARLMIGVTNPLASAPGSIRGDFGVDVGRNIIHGSDSVESANREIALWFKPEELLTEVKPNPNLYE",,,,,2000,

# The next lines start with results.
k2/Ks [1] [M⁻¹ s⁻¹],k2/Ks [2] [M⁻¹ s⁻¹],k2/Ks [3] [M⁻¹ s⁻¹],k2/Ks [4] [M⁻¹ s⁻¹],Molecule,specific activity [10] [U/mg],also measured
3.6e+06,500000,6.8e+06,240000,Nc1nc2c(ncn2[C@H]2C[C@H](O)[C@@H](COP(=O)(O)OP(=O)(O)OP(=O)(O)O)O2)c(=O)[nH]1 [dGTP],,
20,2800,200,170,Cc1cn([C@H]2CC[C@@H](COP(=O)(O)OP(=O)(O)OP(=O)(O)O)O2)c(=O)[nH]c1=O [dideoxy-TTP],,"Specificity change (R) [2, 11]: (370); Specificity change (R) [3, 11]: (6); Specificity change (R) [4, 11]: (100)"

# — US20030207830A1, “Mutant NDP kinases for antiviral nucleotide analog activation and therapeutic uses thereof” (priority 2002, published 2003)
